In ChEMBL document CHEMBL1137175, “Nonpeptide alpha V beta 3 antagonists. Part 9: Improved pharmacokinetic profile through the use of an aliphatic, des-amide backbone” (Bioorg Med Chem Lett, 2004):
pIC50: −log10 of the molar value.

Legend:
Integrin alpha-V/beta-3 [1] = molecular target: T1, Integrin alpha-V/beta-3 (Homo sapiens, UniProt P05106+P06756); experiment: Inhibition of alpha v beta 3 receptor binding; assay type: protein-complex assay
Integrin alpha-V/beta-3 [2] = molecular target: T1, Integrin alpha-V/beta-3; experiment: Inhibition of binding to alpha v beta 3 receptor; assay type: protein-complex assay
[3] = Oral bioavailability in dog; assay type: ADME, organism-based, Canis lupus familiaris; conditions: in vivo
[4] = Half life of compound is determined in dogs; assay type: ADME, Canis lupus familiaris; conditions: dog, in vivo
[5] = Partition coefficient (logP); assay type: physicochemical; conditions: octanol/water
[6] = Concentration required for plasma clearance is determined in dogs; assay type: ADME, organism-based, Canis lupus familiaris; conditions: dog

T1 sequence (P05106 27-788 limits assumed): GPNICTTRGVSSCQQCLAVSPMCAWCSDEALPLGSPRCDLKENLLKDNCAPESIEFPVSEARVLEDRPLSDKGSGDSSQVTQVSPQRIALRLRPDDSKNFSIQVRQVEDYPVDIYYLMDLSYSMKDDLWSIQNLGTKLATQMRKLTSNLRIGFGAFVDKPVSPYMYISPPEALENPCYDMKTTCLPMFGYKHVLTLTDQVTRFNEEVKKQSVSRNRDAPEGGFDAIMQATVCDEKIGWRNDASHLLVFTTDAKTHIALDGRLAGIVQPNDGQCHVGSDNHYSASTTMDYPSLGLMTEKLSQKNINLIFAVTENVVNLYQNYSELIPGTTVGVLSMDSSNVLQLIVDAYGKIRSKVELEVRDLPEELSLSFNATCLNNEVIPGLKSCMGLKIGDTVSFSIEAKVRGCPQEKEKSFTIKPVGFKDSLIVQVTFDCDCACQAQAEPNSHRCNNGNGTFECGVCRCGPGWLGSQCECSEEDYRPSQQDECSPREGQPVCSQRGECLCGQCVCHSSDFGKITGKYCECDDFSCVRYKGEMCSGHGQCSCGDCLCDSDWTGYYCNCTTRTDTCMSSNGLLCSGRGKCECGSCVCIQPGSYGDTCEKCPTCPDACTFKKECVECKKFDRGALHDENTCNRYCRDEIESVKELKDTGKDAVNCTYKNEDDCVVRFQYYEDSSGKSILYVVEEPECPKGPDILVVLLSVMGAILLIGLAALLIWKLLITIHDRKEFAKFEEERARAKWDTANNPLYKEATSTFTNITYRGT
T1 sequence (P06756 31-889 limits assumed): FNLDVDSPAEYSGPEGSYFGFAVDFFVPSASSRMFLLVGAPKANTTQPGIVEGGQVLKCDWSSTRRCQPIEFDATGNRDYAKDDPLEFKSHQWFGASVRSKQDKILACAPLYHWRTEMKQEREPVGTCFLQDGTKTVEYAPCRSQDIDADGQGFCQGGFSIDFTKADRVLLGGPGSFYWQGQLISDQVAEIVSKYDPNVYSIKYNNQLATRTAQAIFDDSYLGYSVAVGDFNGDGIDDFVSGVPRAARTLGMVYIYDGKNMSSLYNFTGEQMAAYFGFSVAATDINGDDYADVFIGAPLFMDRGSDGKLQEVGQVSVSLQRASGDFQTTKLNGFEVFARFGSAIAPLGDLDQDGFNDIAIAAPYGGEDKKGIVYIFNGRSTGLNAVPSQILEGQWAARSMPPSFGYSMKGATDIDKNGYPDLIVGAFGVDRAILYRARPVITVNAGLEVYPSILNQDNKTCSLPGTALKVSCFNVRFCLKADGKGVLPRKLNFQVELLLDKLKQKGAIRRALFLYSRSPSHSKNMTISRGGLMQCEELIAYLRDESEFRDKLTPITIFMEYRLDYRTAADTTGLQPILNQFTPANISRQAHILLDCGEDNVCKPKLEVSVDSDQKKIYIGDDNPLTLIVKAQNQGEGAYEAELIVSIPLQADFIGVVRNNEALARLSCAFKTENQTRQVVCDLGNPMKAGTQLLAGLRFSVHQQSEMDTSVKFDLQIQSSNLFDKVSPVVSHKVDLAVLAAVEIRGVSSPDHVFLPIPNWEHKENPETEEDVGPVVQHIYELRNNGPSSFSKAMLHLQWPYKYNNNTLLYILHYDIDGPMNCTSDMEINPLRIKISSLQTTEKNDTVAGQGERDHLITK
T1 sequence (P06756 891-1048 limits assumed): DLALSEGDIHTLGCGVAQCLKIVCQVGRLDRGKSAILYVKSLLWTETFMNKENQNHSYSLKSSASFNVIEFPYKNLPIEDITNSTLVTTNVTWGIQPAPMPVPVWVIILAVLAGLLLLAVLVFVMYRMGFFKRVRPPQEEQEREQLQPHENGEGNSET

O=C(CCCCc1ccc2c(n1)NCCC2)NC[C@H](NC(=O)OCc1ccccc1)C(=O)O
pIC50 (Integrin alpha-V/beta-3 [1]): 8.74

CC1(C)[C@@H]2CC[C@@]1(CS(=O)(=O)N[C@@H](CNC(=O)CCCCc1ccc3c(n1)NCCC3)C(=O)O)C(=O)C2
pIC50 (Integrin alpha-V/beta-3 [1]): 10.00

O=C(NCc1ccccc1)N[C@@H](CCCCCCCc1ccc2c(n1)NCCC2)C(=O)O
pIC50 (Integrin alpha-V/beta-3 [2]): 8.33

O=C(N[C@@H](CCCCCCCc1ccc2c(n1)NCCC2)C(=O)O)c1ccccc1
pIC50 (Integrin alpha-V/beta-3 [2]): 7.14

CC1(C)[C@@H]2CC[C@@]1(CS(=O)(=O)N[C@@H](CCCCCCCc1ccc3c(n1)NCCC3)C(=O)O)C(=O)C2
pIC50 (Integrin alpha-V/beta-3 [2]): 9.10

O=C(O)[C@H](CCCCCCCc1ccc2c(n1)NCCC2)NS(=O)(=O)Cc1ccccc1
pIC50 (Integrin alpha-V/beta-3 [2]): 7.46

CCCCS(=O)(=O)N[C@@H](CNC(=O)CCCCc1ccc2c(n1)NCCC2)C(=O)O
pIC50 (Integrin alpha-V/beta-3 [1]): 8.64

O=C(CCCCc1ccc2c(n1)NCCC2)NC[C@H](NS(=O)(=O)c1ccccc1)C(=O)O
pIC50 (Integrin alpha-V/beta-3 [1]): 9.52

O=C(O)[C@H](CCCCCCCc1ccc2c(n1)NCCC2)NS(=O)(=O)CC1CCCCC1
pIC50 (Integrin alpha-V/beta-3 [2]): 7.74

O=C(N[C@@H](CCCCCCCc1ccc2c(n1)NCCC2)C(=O)O)OCc1ccccc1
pIC50 (Integrin alpha-V/beta-3 [2]): 8.21

O=C(O)[C@H](CCCCCCCc1ccc2c(n1)NCCC2)NS(=O)(=O)c1ccccc1
pIC50 (Integrin alpha-V/beta-3 [2]): 7.95

Cc1ccc(S(=O)(=O)N[C@@H](CNC(=O)CCCCc2ccc3c(n2)NCCC3)C(=O)O)cc1
pIC50 (Integrin alpha-V/beta-3 [1]): 9.40

O=C(CCCCc1ccc2c(n1)NCCC2)NC[C@H](NC(=O)c1ccccc1)C(=O)O
pIC50 (Integrin alpha-V/beta-3 [1]): 7.13

O=C(O)[C@H](CCCCCCCc1ccc2c(n1)NCCC2)NS(=O)(=O)C1CCCCC1
pIC50 (Integrin alpha-V/beta-3 [2]): 7.30

CCCCS(=O)(=O)N[C@@H](CCCCCCCc1ccc2c(n1)NCCC2)C(=O)O
pIC50 (Integrin alpha-V/beta-3 [2]): 7.67

O=C(Cc1ccccc1)N[C@@H](CCCCCCCc1ccc2c(n1)NCCC2)C(=O)O
pIC50 (Integrin alpha-V/beta-3 [2]): 7.29 | bioavailability [3]: 17% | half-life [4]: 19.2 h | logP [5]: 1.13 | clearance [6]: 0.78 L/h/kg
